Measurements reported in US20230240989A1, “LIPOSOMAL OZONE NANOSOLUTIONS” (priority 2021, published 2023).
“And” between values parts separate entries of the source, which are not always exact repeats. Equal entries are not always repeated. Where two headings read alike, the source gives them in different places.

Experiments:
[1] = system: female rats of Sprague downey breed; conditions: skin biopsy of laparotomy incision line, group average
Source text: A total of 72 skin biopsies of 72 animals from the abdomen were examined in the experimental groups in the applications on the wound lips on the skin line where the incision was made; Physiological Salt Water (FTS), 1% Lidocaine, ozone-free nanosolution, 250 ppm ozone nanosolution, 500 ppm ozone nanosolution, 500 ppm ozone nanosolution+2% Lidocaine (50% blend), 1000 ppm Ozone nanosolution+2% Lidocaine (50% blend) and 2000 ppm ozone nanosolution+2% Lidocaine (50% blend). Lesions were scored and group average scores were obtained.

[2] = system: BALB/c 3T3 (CCL-163) cell line; conditions: mouse, 48 h
[3] = system: L-929 mouse fibroblast cell line; conditions: 48 h
[4] = system: back skin of New Zealand albino rabbits; test: Skin irritation test TS EN ISO 10993-10 (barrier solution)
Source text: Three healthy young New Zealand albino rabbits with a body weight of 2-3 kg were used as experimental animals.
Test material given under the title of TS EN ISO 10993-10:2010 annex A A.2,2 Liquid test materials; Liquids were applied without dilution or by direct precipitation or, if not applicable, at a dose of 1600 ppm, which is the usage dose according to the guideline. […] The sponge impregnated with the nanosolution of the invention was kept in direct contact with the sample application areas. SLS impregnated sponge was applied to the positive control area. The samples were covered with gauze, fixed with a bandage, and topically contacted with the back skin for 4 hours. The primary irritation index was determined by evaluating the application areas (1±0.1) […], and (72±2) hours after the 4th hour application, according to the skin reaction score given in Chart 1. As stated in the standard, the 1st hour was not included in the calculation.

[5] = system: inner cheek pouch of Syrian hamsters; test: Oral mucosal irritation test
Protocol: Oral mucosal irritation test was carried out considering the TS EN ISO 10993-10:2010 standard, the experimental animal used in the test is considered according to TS EN ISO 10993-2:2006 standard, the material preparation is made according to TS EN ISO 10993-12:2012 standard guidelines. The test is performed for materials intended to come into contact with oral tissue and where safety data cannot be obtained by other means.
Animals were acclimated to the environment by taking care of them as specified in TS EN ISO 10993-2:2006. Healthy young adult Syrian hamsters of both sexes, unrelated to a single strain, were used for testing. Product sample-impregnated gauze was placed in the inner cheek pouch of each animal under ketamine/Xylazine anesthesia. The exposure time was evaluated according to the rule of reflecting the actual expected use time of the material, and the sample was kept in the inner cheek pouch for 1 hour.
Test material given under the title of ISO 10993-10:2010 annex A A.2,2 Liquid test materials; Liquids were applied without dilution or by direct precipitation or, if not applicable, at a dose of 1600 ppm, which is the usage dose according to the guideline. Saline solution-impregnated absorbent gauze was used as negative control. As a positive control, HCl acid solution adjusted to pH 1.5 was used in our laboratory based on the rule that liquids with pH 2 and below are considered irritating.
The left inner cheek pouch of each animal was evaluated for the experimental sample, and the contralateral (Right) inner cheek was considered as the negative control. No material was placed into the right side inner cheek pouch, it was only washed with physiological saline and dissected at the end of the experiment.
Gauze cloth impregnated with a usage dose of 1600 ppm of the nanosolution of the invention was placed in the left inner cheek pouch of Syrian hamsters under ketamine/Xylazine anesthesia, whose inner cheeks were emptied and washed with saline. After the exposure of the subject to the sample for 1 hour, the sample was removed and the inner cheek was rinsed with saline solution, taking care not to contaminate the other cheek. Experiment (left) and control (right) inner cheek pouches were evaluated macroscopically according to chart 1. The experiment was terminated after 1 hour of contact.
According to the standard directive, the exposure time should reflect the actual expected use time of the material, but should not be less than 5 minutes. The repeated observation rating (Table 1) performed at long-term chronic exposures is summed up and divided by the total repeat application 4. Since it is a device with subacute use, the application was performed 4 times with one hour intervals. Observations of the sample applied left inner cheek were compared with the right inner cheeks (negative control) washed with saline.

[6] = system: back skin of New Zealand albino rabbits; test: Irritation test TS EN ISO 10993-10 (injection solution); type: in vivo, rabbit; conditions: for Primary irritation score (score average): 24th-72nd hour, 1st hour not included
Source text: Test material given under the title of TS EN ISO 10993-10:2010 annex A A.2,2 Liquid test materials; Liquids should be tested without dilution or by direct precipitation or, if not applicable, by diluting with physiological saline to ¼ dose, which is the usage dose in accordance with the directive that it should be tested by diluting with a suitable liquid.
Sodium lauryl sulphate (SLS) was used as a positive control and distilled water was used as a negative control.
SLS-impregnated sponge was applied to the positive control area (area no 3). The samples were covered with gauze, fixed with a bandage, and topically contacted with the back skin for 4 hours.
The primary irritation index was determined by evaluating the application areas (1±0.1) s, (24±2) s, (48±2) s, and (72±2) hours after the 4th hour application, according to the skin reaction score given in Chart 1. As stated in the standard, the 1st hour was not included in the calculation.

albino guinea pigs = test: Sensitization test, Closed Patch-Buehler method; conditions: per animal
[7] = left cheek (experiment), single subject

CCN(CC)CC(=O)Nc1c(C)cccc1C [1% lidocaine]
Collagen Epidermis/Dermis (%) [1]: 25.33 ± 2.46%
Bleeding score ([1]; scoring out of 3): 0.83 ± 0.54
Connective tissue score ([1]; scoring out of 3): 2.67 ± 0.33
Edema score ([1]; scoring out of 3): 0.67 ± 0.33
Inflammation score ([1]; scoring out of 3): 2.50 ± 0.34
Vascular formation score ([1]; scoring out of 3): 1.83 ± 0.17

C[S+](C)[O-] [PC, Dimethylsulfoxide]
Vitality % ([2]; 3 % v/v): 31.25%
Optical density (OD) mean value 570 nm ± standard deviation (SD) ([2]; 10 % v/v): 0.1 ± 0.06
Vitality % ([2]; 10 % v/v): 24.37%
Optical density (OD) mean value 570 nm ± standard deviation (SD) ([2]; 30 % v/v): 0.078 ± 0.02
Vitality % ([3]; 10 % v/v): 53.44%
Vitality % ([3]; 30 % v/v): 36.46%

CCCCCCCCCCCCOS(=O)(=O)[O-].[Na+] [Positive control, Sodium lauryl sulphate]
Primary Irritation Score Rabbit 1 ([4]; 24th, 48th, 72nd hours): 2.167 ± 1.169
Primary Irritation Score Rabbit 2 ([4]; 24th, 48th, 72nd hours): 1.333 ± 1.2
Primary Irritation Score Rabbit 3 ([4]; 24th, 48th, 72nd hours): 1.500 ± 1.049
Primary Irritation Index ([4]; three rabbits): 1.666
macroscopic examination of inner cheek mucosa ([5]; hamster, in vivo): Areas of mucosal erosion were noted
Microscopic irritation score Edema [5, 7]: 0
Microscopic irritation score Epithelium [5, 7]: 3
Microscopic irritation score Leukocyte infiltration [5, 7]: 2 (Mild (26 to 50))
Microscopic irritation score Vascular congestion [5, 7]: 1
Primary irritation score (score average) ([6]; Rabbit 1): 2.167 ± 1.169
Primary irritation score (score average) ([6]; Rabbit 2): 1.333 ± 1.211
Primary irritation score (score average) ([6]; Rabbit 3): 1.500 ± 1.049
Primary Irritation Index ([6]; mean of three rabbits): 1.666
Magnusson and Kligman Rating (albino guinea pigs; 24th hour after stimulation, 2020 Oct. 27): 2
Magnusson and Kligman Rating (albino guinea pigs; 48th hour after stimulation, 2020 Oct. 28): 2
Magnusson and Kligman Rating (albino guinea pigs; Induction first week, application date 2020 Sep. 24, 6 h closed patch): 1
Magnusson and Kligman Rating (albino guinea pigs; Induction first week, application date 2020 Sep. 26, 6 h closed patch): 1
Magnusson and Kligman Rating (albino guinea pigs; Induction first week, application date 2020 Sep. 28, 6 h closed patch): 1
Magnusson and Kligman Rating (albino guinea pigs; Induction, application date 2020 Oct. 2, 6 h closed patch, sulphate): 2 (3×) and 1 (2×)
Magnusson and Kligman Rating (albino guinea pigs; Induction, application date 2020 Oct. 4, 6 h closed patch): 2
Magnusson and Kligman Rating (albino guinea pigs; Induction, application date 2020 Oct. 7, 6 h closed patch): 2
Magnusson and Kligman Rating (albino guinea pigs; Induction, application date 2020 Oct. 9, 6 h closed patch, sulphate): 2 (4×) and 3
Magnusson and Kligman Rating (albino guinea pigs; Induction, application date 2020 Oct. 12, 6 h closed patch, sulphate): 3 (4×) and 2
Magnusson and Kligman Rating (albino guinea pigs; Induction, application date 2020 Sep. 31, 6 h closed patch, sulphate): 1 (4×) and 2
Magnusson and Kligman Rating (albino guinea pigs; Stimulation application, 2020 Oct. 26, sulphate): 2 (4×) and 3
